“And” between values parts separate entries of the source, which are not always exact repeats. Identical values can stand only once.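 96-well plates; 48 h exposure; 5 concentrations. Endpoints by linear interpolation between flanking doses. Not reached: highest tested concentration assigned. Abbreviation: GI50, concentration required for 50% inhibition of growth. TGI: concentration producing complete growth inhibition.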
What was measured:
Test in all cases: inhibition of tumour cell growth, NCI panel, 48 h
HT29 colon = system: HT29 colon
HCC-2998 colon = system: HCC-2998 colon
HCT-15 colon = system: HCT-15 colon
BT-549 breast = system: BT-549 breast
KM12 colon = system: KM12 colon
SNB-19 CNS = system: SNB-19 CNS
OVCAR-3 ovarian = system: OVCAR-3 ovarian
HCT-116 colon = system: HCT-116 colon
T-47D breast = system: T-47D breast
SK-MEL-2 melanoma = system: SK-MEL-2 melanoma

SMILES	TGI (HT29 colon)	TGI (HCC-2998 colon)	TGI (HCT-15 colon)	TGI (BT-549 breast)	TGI (KM12 colon)	TGI (SNB-19 CNS)	TGI (OVCAR-3 ovarian)	TGI (HCT-116 colon)	TGI (T-47D breast)	TGI (SK-MEL-2 melanoma)	GI50 (BT-549 breast)	GI50 (SNB-19 CNS)	GI50 (SK-MEL-2 melanoma)	GI50 (OVCAR-3 ovarian)	GI50 (HT29 colon)	GI50 (HCT-116 colon)
C=CCOC(C)(C)C1=CCC(C)CC1 (stereo not given)	> 100 µM	> 100 µM	> 100 µM	> 100 µM	> 100 µM	> 100 µM	> 100 µM	> 100 µM								
CN(C)c1cccc2c(S(=O)(=O)NCCN)cccc12	> 100 µM	> 100 µM	> 100 µM		> 100 µM	> 100 µM	> 100 µM	> 100 µM	> 100 µM	> 100 µM						
Cc1cc(-c2ccc(N=Nc3ccc4c(S(=O)(=O)O)cc(S(=O)(=O)O)c(N)c4c3O)c(C)c2)ccc1N=Nc1ccc2c(S(=O)(=O)O)cc(S(=O)(=O)O)c(N)c2c1O	> 100 µM	> 100 µM	> 100 µM		> 100 µM	> 100 µM	> 100 µM	> 100 µM		> 100 µM						
COc1ccc(S(=O)(=O)NC(CCC(=O)NC(N)=O)C(=O)NC(N)=O)cc1 (stereo not given)	> 100 µM	> 100 µM	> 100 µM	> 100 µM	> 100 µM	> 100 µM	> 100 µM	> 100 µM	> 100 µM	> 100 µM						
COc1cc2c(cc1OC)C1=C(C=O)c3ccc(OC)c(OC)c3C(O)N1CC2 (stereo not given)	> 100 µM	31.7 µM	> 100 µM	70.1 µM	> 100 µM	> 100 µM	> 100 µM	> 100 µM	57.9 µM	28.7 µM						
CC1(C)C(=O)/C(=C/c2ccccc2)C(C)(C)C1(C)C	> 100 µM	> 100 µM	> 100 µM	> 100 µM	> 100 µM	> 100 µM	> 83.2 µM	> 100 µM	> 100 µM	> 100 µM						
CCNC(=S)N/N=C(/C)c1cccc(/C(C)=N\NC(=S)NCC)n1	46.2 µM	> 96.7 µM	> 57 µM	> 100 µM	> 51.1 µM	> 100 µM	> 94 µM	13.1 µM	> 45.4 µM	> 93.1 µM						
Nc1c(C(=O)O)c2ccc([N+](=O)[O-])cc2c(=O)n1-c1nc2ccccc2s1	> 100 µM	> 100 µM	> 100 µM	> 100 µM	> 100 µM	> 100 µM	> 100 µM	> 100 µM	> 100 µM	> 100 µM						
COc1ccc2oc(=O)c(-c3cc4c(c(C)n3)c(=O)oc3ccc(OC)cc34)cc2c1	> 100 µM	> 100 µM	> 100 µM	> 100 µM	> 100 µM	57.6 µM	> 100 µM	> 100 µM	> 100 µM	> 100 µM						
O=S(Nc1ccccc1)c1ccc(Cl)cc1 (stereo not given)	> 100 µM	> 100 µM	> 100 µM	> 100 µM	59.9 µM	> 100 µM	> 100 µM	> 100 µM	> 100 µM	> 100 µM						
COc1ccc(/C(C=O)=C(\Cl)c2ccc(OC)c(OC)c2)cc1	> 100 µM	> 100 µM	> 100 µM			> 100 µM	> 100 µM	> 100 µM		> 100 µM						
COc1ccc(C(=CCC(C)C2CCC3[C@@H]4C(OC(C)=O)CC5CC(OC(C)=O)CC[C@]5(C)C4CC(OC(C)=O)[C@]23C)c2ccc(OC)cc2)cc1 (stereo not given in full)	> 100 µM	> 100 µM	> 100 µM		> 100 µM	> 100 µM		> 100 µM	> 100 µM							
COc1cccc2c(=O)oc(-c3ccccc3C)nc12	> 100 µM	> 100 µM	> 100 µM	48.2 µM	> 100 µM		> 100 µM	> 100 µM	> 100 µM	67.5 µM						
CN(Cc1cnc2nc(N)nc(N)c2n1)c1ccc(C(=O)NC(CCC(=O)O)C(=O)O)c2ccccc12 (stereo not given)	> 1000 µM		> 1000 µM	> 1000 µM	> 1000 µM	> 1000 µM		> 1000 µM	> 1000 µM	> 1000 µM	> 1000 µM	< 0.0174 µM	> 1000 µM	32.9 µM		
O=c1c2[nH]cnc2n(-c2ccccc2)c(=S)n1-c1ccccc1	> 100 µM	> 100 µM	> 100 µM	> 100 µM	> 100 µM		> 100 µM	> 100 µM	> 100 µM	> 100 µM						
CCc1c(O)nc(Nc2nc3ccccc3[nH]2)[nH]c1=O	> 100 µM	> 100 µM	> 100 µM	> 100 µM		> 100 µM	> 100 µM	> 100 µM		> 100 µM						
COc1cccc(/C=N/[N-]C(N)=O)c1[O-].[Cu+2].[OH3+]	21.3 µM	31 µM	27.2 µM		28 µM	8.97 µM and 28.5 µM	22.8 µM	15.9 µM		31.3 µM		14.9 µM		10.4 µM	9.17 µM	4.09 µM
NCCCNc1nc2ccccc2c2c(=O)c3cc(Cl)ccc3sc12	3.18 µM			46.2 µM						3.69 µM	13.5 µM		1.99 µM		1.72 µM	
CCOC(=O)N1CCNCCN(C(=O)OCC)CCNCC1	> 100 µM	> 100 µM	> 100 µM	> 100 µM		> 100 µM	> 100 µM	> 100 µM	> 100 µM	> 100 µM						
CC(=O)OC12c3ccccc3C(c3ccccc31)C1C(=O)N(N=C(C)C)C(=O)C12 (stereo not given)	> 100 µM	> 100 µM	> 100 µM	> 100 µM	> 100 µM	> 100 µM	> 100 µM	> 100 µM	> 100 µM							
CC(=O)O[C@H]1CC[C@@H](OC(C)=O)[C@H]2[C@H](O)[C@H](O)[C@@H]1n1c(=O)n(-c3ccccc3)c(=O)n12	> 100 µM		> 100 µM	> 100 µM	> 100 µM	> 100 µM	> 100 µM	> 100 µM	> 100 µM	> 100 µM						
CC(C)C(NCc1c2ccccc2[n+](C)c2ccccc12)C(=O)O (stereo not given)	10.3 µM	29.3 µM	13.9 µM		18.7 µM	33 µM	16.9 µM	13.6 µM		17 µM						

Reference: PubChem BioAssay (NCI)
